Source: US20230110378A1, “MONOBACTAM COMPOUND AND USE THEREOF” (EVOPOINT BIOSCIENCES CO., LTD., priority 2019, published 2023)
≈ marks a conversion by molar mass, not a printed value.

Experiments:
[1] = tested on: Enterobacter cloacae HDBECL 30030; experiment: Minimum inhibitory concentration (broth microdilution, CLSI); assay type: cell-based; settings: HDBECL30030
How it was run: (§1)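 CLSI broth microdilution in 1.02×CAMHB at an inoculum of 2×10^5 CFU/mL. Compounds were 2-fold diluted from a top concentration of 16, 32 or 64 μg/mL. MIC was read visually after 20-24 h at 35±2 °C in normal atmosphere.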

[2] = tested on: Escherichia coli HDBEC 30008; experiment: as above; assay type: cell-based; settings: HDBEC30008
How it was run: as §1

[3] = tested on: Escherichia coli HDBEC 30016; experiment: as above; assay type: cell-based; settings: HDBEC30016
How it was run: as §1

[4] = tested on: Escherichia coli HDBEC 30048; experiment: as above; assay type: cell-based; settings: HDBEC30048
How it was run: as §1

[5] = tested on: Klebsiella pneumoniae HDBKP 30006; experiment: as above; assay type: cell-based; settings: HDBKP30006
How it was run: as §1

[6] = tested on: Klebsiella pneumoniae HDBKP 9153; experiment: as above; assay type: cell-based; settings: HDBKP9153
How it was run: as §1

[7] = tested on: Klebsiella pneumoniae HDBKP 9249; experiment: as above; assay type: cell-based; settings: HDBKP9249
How it was run: as §1

[8] = tested on: Proteus mirabilis HDBPM 40; experiment: as above; assay type: cell-based; settings: HDBPM40
How it was run: as §1

[9] = tested on: Pseudomonas aeruginosa HDBPA 5679; experiment: as above; assay type: cell-based; settings: HDBPA5679
How it was run: as §1

[10] = tested on: metallo-β-lactamase-expressing Acinetobacter baumannii strain ABA-0003YK; experiment: as above; assay type: cell-based; settings: read-out: MIC A. baumannii ABA-0003YK
How it was run: as §1

[11] = Pharmacokinetic evaluation of compounds in mice (tail vein injection); assay type: in vivo, Male CD-1 (ICR) mice; settings: CD-1 (ICR), mouse, male CD-1 mice, intravenous injection, dose 5 mg/kg, plasma
Method: Male CD-1 (ICR) mice were purchased and then acclimatized in this laboratory for at least 3 days. […] Blood samples were collected from the saphenous vein at 0.0833 h, 0.25 h, 0.5 h, 1 h, 2 h, 4 h, 8 h and 24 h following the tail vein injection administration. The volume of blood collection at each time point of the blood collection was about 30 μL. The blood samples were placed in centrifuge tubes containing anticoagulant EDTA-K2 and centrifuged at 3,200 g at 4° C. for 10 min, and then the upper plasma samples were collected and preserved in a freezer at −70±10° C. for later tests.
1) To 1.5 mL centrifuge tubes were added a 6 μL aliquot of an unknown sample, a standard curve, a quality control, a dilution quality control, single blank and double blank samples.
2) Each sample (except for the double blank sample) was treated with 120 μL of IS1-containing precipitant (the double blank sample was treated with 120 μL of pure MeOH for precipitation), and the mixtures were well mixed (for at least 15 s) using a vortexer and centrifuged at 12,000 g at 4° C. for 15 min.
3) 60 μL of the supernatants were transferred to a 96-well plate and centrifuged at 4° C. at 3220 g for 5 min, and 6 p L of the supernatants were injected for LC-MS/MS quantitative analysis.
1) The 1 h-plasma samples from the 3 mice were diluted 10-fold: 2 p L of the samples were added to 18 p L of blank matrix.
2) The 0.0833 h to 0.5 h-plasma samples from the 3 mice were diluted 100-fold: 18 μL of blank matrix was added to 2 p L of the samples to obtain 10-fold diluted samples. 2 μL of the 10-fold diluted samples were added to 18 p L of blank matrix to obtain 100-fold diluted analysis samples.
LC-MS/MS analysis conditions: chromatography column: ACQUITY UPLC HSS T3 (2.1×50 mm, 1.8 μm); column temperature: 50° C.; mobile phase A: a 0.1% aqueous solution of formic acid; mobile phase B: a 0.1% solution of formic acid in acetonitrile; flowrate: 0.65 mL/min. Internal standard: verapamil (100 ng/mL)
The concentration of the compounds in plasma was measured by LC-MS/MS (LC-MS/MS-AK_Q-Trap 6500). The pharmacokinetic software WinNonlin [version: Phoenix™ WinNonlin®6.3, manufacturer: Pharsight Corporation] was used to calculate pharmacokinetic parameters (V-Noncompartmental model 201).

What does the source list for CC(C)(O/N=C(\C(=O)N[C@@H]1C(=O)N(S(=O)(=O)O)[C@@H]1CNC(=O)c1cc([C@@H]2CCN(C(=O)c3cc(=O)c(O)cn3O)C2)no1)c1csc(N)n1)C(=O)O [Compound I-7]?
MIC [1]: < 4 µg/mL; MIC [2]: < 4 µg/mL; MIC [3]: 4 to 8 µg/mL (≈ 5.21 to 10.4 µM); MIC [4]: < 4 µg/mL; MIC [5]: > 16 µg/mL; MIC [6]: < 4 µg/mL; MIC [7]: > 16 µg/mL; MIC [8]: < 4 µg/mL; MIC [9]: < 4 µg/mL; MIC [10]: < 4 µg/mL; AUC [11]: 4240 ng·h/mL; clearance [11]: 19.6 mL/min/kg; half-life ([11]; read-out: T½ (converted)): 16.2 min; Vd ([11]; read-out: Vss): 0.48 L/kg

For CC(C)(O/N=C(\C(=O)N[C@@H]1C(=O)N(S(=O)(=O)O)[C@@H]1CNC(=O)c1cc([C@@H]2CCN(C(=O)c3ccc(O)c(O)c3Cl)C2)no1)c1csc(N)n1)C(=O)O [Compound I-27], which MIC [1] is on record?
The MIC was under 4 µg/mL.

And the MIC [2]?
Its MIC is under 4 µg/mL.

And the MIC [3]?
The MIC was under 4 µg/mL.

And the MIC [4]?
Its MIC is under 4 µg/mL.

What about the MIC [5] of the same compound?
The MIC was 4 to 8 µg/mL (≈ 5.09 to 10.2 µM).

What about the MIC [6] of the same compound?
The MIC was under 4 µg/mL.

And the MIC [7]?
Its MIC is 4 to 8 µg/mL (≈ 5.09 to 10.2 µM).

What about the MIC [8] of the same compound?
The MIC was under 4 µg/mL.

And the MIC [9]?
Its MIC is under 4 µg/mL.

What about the MIC [10] of the same compound?
Its MIC is under 4 µg/mL.

Which MIC [1] does the source give for C[n+]1cc(-c2ncc(C(=O)NC[C@@H]3[C@H](NC(=O)/C(=N\OC4(C(=O)O)CC4)c4csc(N)n4)C(=O)N3S(=O)(=O)O)s2)cn1CCCNC(=O)c1ccc(O)c(O)c1Cl [Compound I-28] here?
The MIC was under 4 µg/mL.

What about the MIC [2] of the same compound?
The MIC was under 4 µg/mL.

And the MIC [3]?
The MIC was under 4 µg/mL.

What about the MIC [4] of the same compound?
Its MIC is under 4 µg/mL.

What about the MIC [5] of the same compound?
The MIC was 4 to 8 µg/mL.

What about the MIC [6] of the same compound?
The MIC was under 4 µg/mL.

What about the MIC [7] of the same compound?
The MIC was under 4 µg/mL.

And the MIC [8]?
The MIC was under 4 µg/mL.

And the MIC [9]?
Its MIC is under 4 µg/mL.

What about the MIC [10] of the same compound?
Its MIC is under 4 µg/mL.

For CC(C)(O/N=C(\C(=O)N[C@@H]1C(=O)N(S(=O)(=O)O)[C@@H]1CNC(=O)c1cnc([C@@H]2CCN(C(=O)c3ccc(O)c(O)c3Cl)C2)s1)c1csc(N)n1)C(=O)O [Compound I-30], which MIC [1] is on record?
The MIC was under 4 µg/mL.

And the MIC [2]?
The MIC was under 4 µg/mL.

And the MIC [3]?
Its MIC is under 4 µg/mL.

And the MIC [4]?
Its MIC is under 4 µg/mL.

And the MIC [5]?
The MIC was 4 to 8 µg/mL (≈ 4.99 to 9.98 µM).

And the MIC [6]?
The MIC was under 4 µg/mL.

What about the MIC [7] of the same compound?
Its MIC is 4 to 8 µg/mL (≈ 4.99 to 9.98 µM).

What about the MIC [8] of the same compound?
Its MIC is under 4 µg/mL.

And the MIC [9]?
The MIC was under 4 µg/mL.

What about the MIC [10] of the same compound?
The MIC was under 4 µg/mL.

Which MIC [1] does the source give for CC(C)(O/N=C(\C(=O)N[C@@H]1C(=O)N(S(=O)(=O)O)[C@@H]1CNC(=O)c1cc(C2CC[N+](C)(CCNC(=O)c3ccc(O)c(O)c3Cl)C2)no1)c1csc(N)n1)C(=O)O (stereo partly shown) [Compound I-32] here?
The MIC was under 4 µg/mL.

What about the MIC [2] of the same compound?
Its MIC is under 4 µg/mL.

And the MIC [3]?
The MIC was 4 to 8 µg/mL.

What about the MIC [4] of the same compound?
The MIC was under 4 µg/mL.

And the MIC [5]?
Its MIC is 8 to 16 µg/mL.

And the MIC [6]?
Its MIC is under 4 µg/mL.

What about the MIC [7] of the same compound?
The MIC was under 4 µg/mL.

And the MIC [8]?
Its MIC is under 4 µg/mL.

And the MIC [9]?
Its MIC is under 4 µg/mL.

What about the MIC [10] of the same compound?
The MIC was under 4 µg/mL.

Which results are given for C[n+]1cc(-c2ncc(C(=O)NC[C@@H]3[C@H](NC(=O)/C(=N\OC(C)(C)C(=O)O)c4csc(N)n4)C(=O)N3S(=O)(=O)O)s2)cn1CCCNC(=O)c1ccc(O)c(O)c1Cl [Compound I-33]?
MIC [1]: < 4 µg/mL; MIC [2]: < 4 µg/mL; MIC [3]: < 4 µg/mL; MIC [4]: < 4 µg/mL; MIC [5]: 8 to 16 µg/mL; MIC [6]: < 4 µg/mL; MIC [7]: 4 to 8 µg/mL; MIC [8]: < 4 µg/mL; MIC [9]: < 4 µg/mL; MIC [10]: < 4 µg/mL
